Laboratory results published in PMC7700809 (Molecular Biomedicine, 2020).

Assays:
SARS-CoV-2 [1] = test: microbe, parasite or virus in culture; type: cell-based; details: Severe acute respiratory syndrome coronavirus 2, Vero, read-out: EC50 antiviral replication effect
SARS-CoV-2 [2] = test: microbe, parasite or virus in culture; type: cell-based

## CCC(CC)COC(=O)[C@H](C)N[P@](=O)(OC[C@H]1O[C@@](C#N)(c2ccc3c(N)ncnn23)[C@H](O)[C@@H]1O)Oc1ccccc1 [Remdesivir]
SARS-CoV-2 [1]
  EC50: 240 nM
SARS-CoV-2 [2]
  virus entry blocking: could not block the virus entry
